ChEMBL document CHEMBL2146463, “Apoptosis-inducing effects of distichamine and narciprimine, rare alkaloids of the plant family Amaryllidaceae” (Bioorg Med Chem Lett, 2012)
Activity calls are given as the source filed them. The rule behind the calls is not given here.

Tests used:
[1] = Induction of apoptosis in rat 5123TC cells assessed as apoptotic index at 25 uM after 48 hrs; type: functional
[2] = Induction of apoptosis in rat 5123TC cells after 48 hrs; type: functional; conditions: read-out: ED50 (the source's name)
CCRF-CEM [3] = experiment: Cytotoxicity against human CEM cells after 72 hrs by Calcein AM assay; type: functional, cell-based
K562 = experiment: Cytotoxicity against human K562 cells after 72 hrs by Calcein AM assay; type: functional, cell-based; conditions: K562, 72 h
MCF7 [4] = experiment: Cytotoxicity against human MCF7 cells after 72 hrs by Calcein AM assay; type: functional, cell-based; conditions: MCF7, 72 h
BJ = experiment: Cytotoxicity against human BJ cells after 72 hrs by Calcein AM assay
HeLa = experiment: Cytotoxicity against human HeLa cells after 72 hrs by Calcein AM assay; type: functional, cell-based
G-361 = experiment: Cytotoxicity against human G361 cells after 72 hrs by Calcein AM assay; type: functional, cell-based; conditions: G-361, 72 h
CCRF-CEM [5] = experiment: Cell cycle arrest in human CEM cells assessed as increase accumulation at G2/M phase after 24 hrs by FACS analysis; type: functional, cell-based
CCRF-CEM [6] = experiment: Induction of apoptosis in human CEM cells assessed as increase in activity of caspases-3/7 at 20 uM after 24 hrs by fluorescence analysis relative to control; type: functional
CCRF-CEM [7] = experiment: Induction of apoptosis in human CEM cells assessed as increase cleavage of PARP at 20 uM after 24 hrs by Western Blot analysis; type: functional, cell-based
CCRF-CEM [8] = experiment: Cell cycle arrest in human CEM cells assessed as decrease accumulation at S phase at 1 to 20 uM after 24 hrs by FACS analysis; type: functional, cell-based
CCRF-CEM [9] = experiment: Induction of apoptosis in human CEM cells assessed as decrease level of procaspase-3 after 24 hrs by Western Blot analysis; type: functional, cell-based
CCRF-CEM [10] = experiment: Cell cycle arrest in human CEM cells assessed as accumulation at sub-G1 phase at 1 to 20 uM after 24 hrs by FACS analysis relative to control; type: functional
CCRF-CEM [11] = experiment: Induction of apoptosis in human CEM cells assessed as decrease level of procaspase-3 at 20 uM after 24 hrs by Western Blot analysis; type: functional, cell-based
CCRF-CEM [12] = experiment: Cell cycle arrest in human CEM cells assessed as decrease accumulation at G0/G1 phase at 1 to 20 uM after 24 hrs by FACS analysis; type: functional, cell-based
CCRF-CEM [13] = experiment: Induction of apoptosis in human CEM cells assessed as decrease level of procaspase-3 at 10 uM after 24 hrs by Western Blot analysis; type: functional, cell-based
CCRF-CEM [14] = experiment: Induction of apoptosis in human CEM cells assessed as […] after 24 hrs by Western Blot analysis; type: functional, cell-based
CCRF-CEM [15] = experiment: Induction of apoptosis in human CEM cells assessed increase in expression of p53 at 20 uM after 24 hrs by Western Blot analysis; type: functional, cell-based
CCRF-CEM [16] = experiment: Induction of apoptosis in human CEM cells assessed decrease level of Mcl-1 at 20 uM after 24 hrs by Western Blot analysis; type: functional, cell-based
CCRF-CEM [17] = experiment: Induction of apoptosis in human CEM cells assessed increase in expression of p53 at 10 uM after 24 hrs by Western Blot analysis; type: functional, cell-based
CCRF-CEM [18] = experiment: Induction of apoptosis in human CEM cells assessed increase in expression of p53 after 24 hrs by Western Blot analysis; type: functional, cell-based
CCRF-CEM [19] = experiment: Induction of apoptosis in human CEM cells assessed activity of Bcl-2 at 1 to 20 uM after 24 hrs by Western Blot analysis; type: functional, cell-based
CCRF-CEM [20] = experiment: Induction of apoptosis in human CEM cells assessed as increase cleavage of PARP at 10 uM after 24 hrs by Western Blot analysis; type: functional, cell-based
MCF7 [21] = experiment: Cytotoxicity against human MCF7 cells; type: functional, cell-based
CCRF-CEM [22] = experiment: Cell cycle arrest in human CEM cells assessed as accumulation at sub-G1 phase at 20 uM after 24 hrs by FACS analysis relative to control; type: functional, cell-based
CCRF-CEM [23] = experiment: Induction of apoptosis in human CEM cells assessed decrease level of Mcl-1 at 1 to 20 uM after 24 hrs by Western Blot analysis; type: functional, cell-based
CCRF-CEM [24] = experiment: Induction of apoptosis in human CEM cells assessed as decrease level of procaspase-3 at 1 to 20 uM after 24 hrs by Western Blot analysis; type: functional, cell-based
CCRF-CEM [25] = experiment: Induction of apoptosis in human CEM cells assessed as increase cleavage of PARP at 1 to 20 uM after 24 hrs by Western Blot analysis; type: functional, cell-based
NCI-H460 = experiment: Cytotoxicity against human NCI-H460 cells by MTT assay; type: functional, cell-based

SMILES | IC50 (CCRF-CEM [3]) [µM] | IC50 (K562) [µM] | IC50 (MCF7 [4]) [µM] | IC50 (BJ) [µM] | IC50 (HeLa) [µM] | IC50 (G-361) [µM] | further results
COc1c2c(cc3c1[C@@H](O)N1CC[C@]34[C@H]3O[C@H]3[C@H](OC)C[C@@H]14)OCO2 |  |  |  |  |  |  | Activity [1]: 25%
CO[C@H]1C=C[C@@]23c4cc5c(cc4CN(C[C@@H]2O)[C@H]3C1)OCO5 |  |  |  |  |  |  | EC50 [2]: 12.5 µM; Activity [1]: 90%
CO[C@@H]1C=C[C@@]23c4cc5c(cc4CN(C[C@@H]2O)[C@H]3C1)OCO5 [(+)-HAEMANTHAMINE] | 2.1 | 3.4 | 8.1 | 2.7 | 7 | 3.7 | EC50 [2]: 15 µM; Activity [1]: 90%
COc1c2c(cc3c1OCO3)[C@]13C=C[C@H](OC)C[C@H]1N(CC3)C2 [BUPHANIDRINE] | > 50 | > 50 | > 50 | 26.2 | > 50 | > 50 | 
COC1=CC(=O)[C@@]23CCN(Cc4c2cc2c(c4OC)OCO2)[C@@H]3C1 [DISTICHAMINE] | 4.5 | 4.1 | 2.3 | 10.5 | 2.2 | 14.7 | Activity (CCRF-CEM [5]): Dose-dependent effect; fold change (FC) (CCRF-CEM [6]): 12.5; Activity (CCRF-CEM [7]): Active; Activity (CCRF-CEM [8]): Active; Activity (CCRF-CEM [9]): Dose-dependent effect; Activity (CCRF-CEM [10]): 23.7%; Activity (CCRF-CEM [11]): Active; Activity (CCRF-CEM [12]): Active; Activity (CCRF-CEM [13]): Active; Activity (CCRF-CEM [14]): Dose-dependent effect; Activity (CCRF-CEM [15]): Active; Activity (CCRF-CEM [16]): Active; Activity (CCRF-CEM [17]): Active; Activity (CCRF-CEM [18]): Dose-dependent effect; Activity (CCRF-CEM [19]): inactive; Activity (CCRF-CEM [20]): Active
COc1ccc2c3c1O[C@H]1C[C@@H](O)C=C[C@@]31CCN(C)C2 [GALANTAMINE] | > 50 | > 50 | > 50 | > 50 | > 50 | > 50 | 
COc1cc2c(cc1OC)[C@H]1[C@H]3C(=CC[C@H]1OC2=O)CCN3C [HOMOLYCORINE] | 15 | 19.4 | > 50 | 20.8 | > 50 | 32.9 | 
COc1ccc2c3c1O[C@H]1C[C@@H](O)CC[C@]31CCN(C)C2 [LYCORAMINE] | > 50 | > 50 | > 50 | > 50 | > 50 | > 50 | 
O[C@H]1[C@H]2c3cc4c(cc3CN3CCC(=C[C@@H]1O)[C@H]23)OCO4 [LYCORINE] | 1.6 | 3.6 | 13 | 1.9 | 10.6 | 5 | Activity (CCRF-CEM [3]): Dose-dependent effect
O=C1N[C@@H]2C(=C[C@H](O)[C@@H](O)[C@H]2O)c2cc3c(c(O)c21)OCO3 [NARCICLASINE] |  |  |  |  |  |  | IC50 (MCF7 [21]): 0.01 µM
O=c1[nH]c2c(O)cccc2c2cc3c(c(O)c12)OCO3 [NARCIPRIMINE] | 13.3 | > 50 | > 50 | 7.9 | > 50 | > 50 | Activity (CCRF-CEM [5]): Dose-dependent effect; fold change (FC) (CCRF-CEM [6]): 1.8; Activity (CCRF-CEM [22]): Active; Activity (CCRF-CEM [8]): Active; Activity (CCRF-CEM [12]): Active; Activity (CCRF-CEM [23]): inactive; Activity (CCRF-CEM [24]): inactive; Activity (CCRF-CEM [25]): inactive; Activity (CCRF-CEM [18]): Dose-dependent effect; Activity (CCRF-CEM [19]): inactive
COc1ccc2c3c1O[C@H]1CC(=O)C=C[C@@]31CCN(C)C2 [NARWEDINE] | 31.6 | > 50 | > 50 | > 50 | > 50 | > 50 | 
O=C1N[C@H]2[C@H](O)[C@H](O)[C@@H](O)[C@H](O)[C@@H]2c2cc3c(c(O)c21)OCO3 [PANCRATISTATIN] |  |  |  |  |  |  | IC50 (MCF7 [21]): 0.071 µM
O=C(O[C@H]1[C@H](O)[C@@H](O)[C@@H](O)[C@@H]2NC(=O)c3c(cc4c(c3O)OCO4)[C@H]21)c1ccccc1 [PHENPANSTATIN] |  |  |  |  |  |  | IC50 (NCI-H460): 0.00023 µM
CN[C@@H]1C[C@H]2O[C@@](C)([C@@H]1OC)n1c3ccccc3c3c4c(c5c6ccccc6n2c5c31)C(=O)NC4 [STAUROSPORINE] | 0.023 |  |  |  |  |  | 
